Results as given in ChEMBL document CHEMBL4630907 (2021).

How the values were obtained:
[1] = biological target: T1, Bromodomain-containing protein 2 (Homo sapiens, UniProt P25440); assay: TR-FRET assay (BRD2 BD2)
[2] = biological target: T1, Bromodomain-containing protein 2; assay: BET mutant TR-FRET assay (BRD2 BD1)
[3] = biological target: T2, Bromodomain-containing protein 3 (Homo sapiens, UniProt Q15059); assay: BET mutant TR-FRET assay (BRD3 BD2)
[4] = biological target: ATPase family AAA domain-containing protein 2 (Homo sapiens, UniProt Q6PL18); assay: ATAD2A DiscoverX BROMOscan
[5] = biological target: T2, Bromodomain-containing protein 3; assay: BRD3(1) DiscoverX BROMOscan
[6] = biological target: Histone acetyltransferase KAT2B (Homo sapiens, UniProt Q92831); assay: PCAF DiscoverX BROMOscan
[7] = biological target: Transcription initiation factor TFIID subunit 1-like (Homo sapiens, UniProt Q8IZX4); assay: TAF1L(2) DiscoverX BROMOscan
[8] = biological target: 5-hydroxytryptamine receptor 1B (Homo sapiens, UniProt P28222); assay: (§1) Cross screening panel
[9] = biological target: T3, 5-hydroxytryptamine receptor 2A (Homo sapiens, UniProt P28223); assay: as §1
[10] = biological target: 5-hydroxytryptamine receptor 2C (Homo sapiens, UniProt P28335); assay: as §1
[11] = biological target: T4, 5-hydroxytryptamine receptor 3A (Homo sapiens, UniProt P46098); assay: as §1
T4 sequence (P46098 whole entry): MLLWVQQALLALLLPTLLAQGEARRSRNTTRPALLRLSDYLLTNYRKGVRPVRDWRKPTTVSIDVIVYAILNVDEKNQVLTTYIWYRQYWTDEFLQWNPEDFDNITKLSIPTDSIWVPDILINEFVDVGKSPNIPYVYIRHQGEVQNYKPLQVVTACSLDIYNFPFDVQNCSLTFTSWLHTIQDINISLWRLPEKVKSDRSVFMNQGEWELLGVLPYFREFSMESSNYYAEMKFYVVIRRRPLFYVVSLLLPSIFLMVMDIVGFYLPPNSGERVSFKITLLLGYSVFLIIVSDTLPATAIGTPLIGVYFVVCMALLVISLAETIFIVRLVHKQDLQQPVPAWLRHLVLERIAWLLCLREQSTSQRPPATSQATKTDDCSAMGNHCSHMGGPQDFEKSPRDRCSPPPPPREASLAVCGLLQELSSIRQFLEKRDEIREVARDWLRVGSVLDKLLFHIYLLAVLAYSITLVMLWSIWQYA

[12] = biological target: Acetylcholine receptor subunit alpha (Homo sapiens, UniProt P02708); assay: as §1
Adenosine receptor A2a = Adenosine receptor A2a (Homo sapiens, UniProt P29274); assay: as §1
[13] = biological target: Alpha-1B adrenergic receptor (Homo sapiens, UniProt P35368); assay: as §1
[14] = biological target: Amine oxidase [flavin-containing] B (Homo sapiens, UniProt P27338); assay: as §1
[15] = biological target: Beta-2 adrenergic receptor (Homo sapiens, UniProt P07550); assay: as §1
Cannabinoid receptor 2 = Cannabinoid receptor 2 (Homo sapiens, UniProt P34972); assay: as §1
Cytochrome P450 3A4 [16] = biological target: T5, Cytochrome P450 3A4 (Homo sapiens, UniProt P08684); assay: as §1
D(1A) dopamine receptor [17] = biological target: T6, D(1A) dopamine receptor (Homo sapiens, UniProt P21728); assay: as §1
D(2) dopamine receptor = D(2) dopamine receptor (Homo sapiens, UniProt P14416); assay: as §1
[18] = biological target: Glutamate receptor ionotropic, NMDA 2B (Homo sapiens, UniProt Q13224); assay: as §1
Histamine H1 receptor [19] = biological target: T7, Histamine H1 receptor (Homo sapiens, UniProt P35367); assay: as §1
[20] = biological target: Kappa-type opioid receptor (Homo sapiens, UniProt P41145); assay: as §1
Mu-type opioid receptor = Mu-type opioid receptor (Homo sapiens, UniProt P35372); assay: as §1
[21] = biological target: Muscarinic acetylcholine receptor M1 (Homo sapiens, UniProt P11229); assay: as §1
[22] = biological target: Muscarinic acetylcholine receptor M2 (Homo sapiens, UniProt P08172); assay: as §1
[23] = biological target: Phosphatidylinositol 4,5-bisphosphate 3-kinase catalytic subunit gamma isoform (Homo sapiens, UniProt P48736); assay: as §1
[24] = biological target: Prostaglandin G/H synthase 2 (Homo sapiens, UniProt P35354); assay: as §1
[25] = biological target: Sodium-dependent noradrenaline transporter (Homo sapiens, UniProt P23975); assay: as §1
Substance-P receptor = Substance-P receptor (Homo sapiens, UniProt P25103); assay: as §1
[26] = biological target: Tyrosine-protein kinase Lck (Homo sapiens, UniProt P06239); assay: as §1
Vasopressin V1a receptor = Vasopressin V1a receptor (Homo sapiens, UniProt P37288); assay: as §1
[27] = biological target: Voltage-dependent L-type calcium channel subunit alpha-1C (Homo sapiens, UniProt Q13936); assay: as §1
[28] = biological target: Voltage-gated inwardly rectifying potassium channel KCNH2 (Homo sapiens, UniProt Q12809); assay: as §1
[29] = biological target: cGMP-inhibited 3',5'-cyclic phosphodiesterase 3A (Homo sapiens, UniProt Q14432); assay: as §1
Cytochrome P450 3A4 [30] = biological target: T5, Cytochrome P450 3A4; assay: as §1; remark: listed apart in the source
[31] = biological target: T3, 5-hydroxytryptamine receptor 2A; conditions: Compound concentration 10.0 uM
D(1A) dopamine receptor [32] = biological target: T6, D(1A) dopamine receptor; conditions: Compound concentration 10.0 uM
[33] = biological target: D(1B) dopamine receptor (Homo sapiens) (UniProt P21918); conditions: Compound concentration 10.0 uM
[34] = biological target: Sodium-dependent serotonin transporter (Homo sapiens, UniProt P31645); conditions: Compound concentration 10.0 uM
[35] = biological target: Sodium-dependent dopamine transporter (Homo sapiens) (UniProt Q01959); conditions: Compound concentration 10.0 uM
[36] = biological target: Delta-type opioid receptor (Homo sapiens) (UniProt P41143); conditions: Compound concentration 10.0 uM
Histamine H1 receptor [37] = biological target: T7, Histamine H1 receptor; conditions: Compound concentration 10.0 uM
[38] = biological target: Histamine H2 receptor (Homo sapiens) (UniProt P25021); conditions: Compound concentration 10.0 uM
[39] = biological target: Histamine H4 receptor (Homo sapiens) (UniProt Q9H3N8); conditions: Compound concentration 10.0 uM
[40] = biological target: GABA-A receptor; anion channel (Rattus norvegicus) (UniProt O09028+P15431+P18506+P18508+P19969+P20236+P23574+P23576+P28471+P28473+P30191+P62813+P63079+P63138+Q91ZM7+Q9ES14); conditions: Compound concentration 10.0 uM
[41] = biological target: Sigma non-opioid intracellular receptor 1 (Homo sapiens) (UniProt Q99720); conditions: Compound concentration 10.0 uM

T3 sequence (P28223 whole entry): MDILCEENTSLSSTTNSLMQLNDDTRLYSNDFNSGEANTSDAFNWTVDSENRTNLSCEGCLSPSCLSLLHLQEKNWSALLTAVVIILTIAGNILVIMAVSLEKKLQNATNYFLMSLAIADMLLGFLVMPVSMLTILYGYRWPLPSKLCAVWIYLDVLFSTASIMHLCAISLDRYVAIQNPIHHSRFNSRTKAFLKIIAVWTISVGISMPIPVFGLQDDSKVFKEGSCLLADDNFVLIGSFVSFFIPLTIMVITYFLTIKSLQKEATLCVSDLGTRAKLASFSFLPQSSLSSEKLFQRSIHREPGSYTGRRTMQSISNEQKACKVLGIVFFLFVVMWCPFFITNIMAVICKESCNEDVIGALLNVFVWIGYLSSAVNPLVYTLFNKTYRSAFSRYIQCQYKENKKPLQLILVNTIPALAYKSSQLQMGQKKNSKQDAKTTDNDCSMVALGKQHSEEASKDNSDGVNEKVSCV
Chain of Muscarinic acetylcholine receptor M2 (P08172 whole entry, canonical isoform): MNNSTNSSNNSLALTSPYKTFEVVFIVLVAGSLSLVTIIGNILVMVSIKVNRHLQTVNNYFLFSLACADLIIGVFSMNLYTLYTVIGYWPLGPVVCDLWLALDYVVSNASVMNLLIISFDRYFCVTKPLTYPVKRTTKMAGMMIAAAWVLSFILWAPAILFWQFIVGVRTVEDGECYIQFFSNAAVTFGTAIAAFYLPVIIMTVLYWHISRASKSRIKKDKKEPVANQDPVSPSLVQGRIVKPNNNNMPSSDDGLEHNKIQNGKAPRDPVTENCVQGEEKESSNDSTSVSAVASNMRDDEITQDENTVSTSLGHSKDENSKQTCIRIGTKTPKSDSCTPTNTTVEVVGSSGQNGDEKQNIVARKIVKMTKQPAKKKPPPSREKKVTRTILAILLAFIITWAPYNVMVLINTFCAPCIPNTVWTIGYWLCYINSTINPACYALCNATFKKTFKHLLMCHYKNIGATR
Chain of D(2) dopamine receptor (P14416 whole entry): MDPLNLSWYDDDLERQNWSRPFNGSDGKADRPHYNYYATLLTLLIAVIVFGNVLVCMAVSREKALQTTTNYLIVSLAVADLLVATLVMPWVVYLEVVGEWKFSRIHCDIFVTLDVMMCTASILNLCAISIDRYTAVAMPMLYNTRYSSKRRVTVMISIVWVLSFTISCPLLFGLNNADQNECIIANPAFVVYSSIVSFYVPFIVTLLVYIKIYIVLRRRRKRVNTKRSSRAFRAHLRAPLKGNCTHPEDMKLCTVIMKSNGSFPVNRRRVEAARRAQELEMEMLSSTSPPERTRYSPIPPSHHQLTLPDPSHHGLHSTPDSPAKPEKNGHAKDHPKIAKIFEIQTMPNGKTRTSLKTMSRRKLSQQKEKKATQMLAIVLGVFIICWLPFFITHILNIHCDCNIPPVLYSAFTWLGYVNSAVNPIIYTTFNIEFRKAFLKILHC
Chain of 5-hydroxytryptamine receptor 1B (P28222 whole entry): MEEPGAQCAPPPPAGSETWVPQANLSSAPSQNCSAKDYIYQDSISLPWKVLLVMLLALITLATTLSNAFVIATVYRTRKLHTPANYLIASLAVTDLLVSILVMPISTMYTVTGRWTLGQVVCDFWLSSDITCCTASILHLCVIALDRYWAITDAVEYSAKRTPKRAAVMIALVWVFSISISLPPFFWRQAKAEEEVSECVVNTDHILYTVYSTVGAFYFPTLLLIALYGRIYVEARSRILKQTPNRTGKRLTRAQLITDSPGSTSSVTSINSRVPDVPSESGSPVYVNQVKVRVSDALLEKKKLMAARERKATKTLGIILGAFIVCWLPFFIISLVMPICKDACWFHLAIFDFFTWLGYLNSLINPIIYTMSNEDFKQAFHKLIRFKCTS
Chain of 5-hydroxytryptamine receptor 2C (P28335 whole entry): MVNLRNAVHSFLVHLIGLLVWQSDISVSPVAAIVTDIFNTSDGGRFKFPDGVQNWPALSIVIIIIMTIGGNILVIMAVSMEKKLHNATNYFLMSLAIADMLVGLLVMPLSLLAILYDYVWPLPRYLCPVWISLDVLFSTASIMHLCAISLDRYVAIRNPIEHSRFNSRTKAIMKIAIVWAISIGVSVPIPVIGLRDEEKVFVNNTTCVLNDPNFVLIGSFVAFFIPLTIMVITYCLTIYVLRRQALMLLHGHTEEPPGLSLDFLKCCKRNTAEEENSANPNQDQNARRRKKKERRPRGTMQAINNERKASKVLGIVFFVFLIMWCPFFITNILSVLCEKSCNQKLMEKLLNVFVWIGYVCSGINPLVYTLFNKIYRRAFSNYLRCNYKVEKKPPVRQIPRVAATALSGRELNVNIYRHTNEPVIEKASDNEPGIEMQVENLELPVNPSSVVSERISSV
Chain of Beta-2 adrenergic receptor (P07550 whole entry): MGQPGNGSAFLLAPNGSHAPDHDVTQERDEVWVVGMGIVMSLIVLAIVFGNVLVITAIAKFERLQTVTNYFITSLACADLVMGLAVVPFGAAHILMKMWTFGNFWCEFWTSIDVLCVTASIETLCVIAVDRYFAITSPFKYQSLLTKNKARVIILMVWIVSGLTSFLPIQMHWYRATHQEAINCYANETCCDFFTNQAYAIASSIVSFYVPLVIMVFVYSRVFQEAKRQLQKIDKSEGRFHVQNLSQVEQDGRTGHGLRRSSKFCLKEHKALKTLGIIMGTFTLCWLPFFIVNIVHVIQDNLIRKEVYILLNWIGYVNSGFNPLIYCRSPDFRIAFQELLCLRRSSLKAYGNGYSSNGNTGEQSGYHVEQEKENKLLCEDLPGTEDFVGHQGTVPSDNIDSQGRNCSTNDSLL
Chain of Kappa-type opioid receptor (P41145 whole entry): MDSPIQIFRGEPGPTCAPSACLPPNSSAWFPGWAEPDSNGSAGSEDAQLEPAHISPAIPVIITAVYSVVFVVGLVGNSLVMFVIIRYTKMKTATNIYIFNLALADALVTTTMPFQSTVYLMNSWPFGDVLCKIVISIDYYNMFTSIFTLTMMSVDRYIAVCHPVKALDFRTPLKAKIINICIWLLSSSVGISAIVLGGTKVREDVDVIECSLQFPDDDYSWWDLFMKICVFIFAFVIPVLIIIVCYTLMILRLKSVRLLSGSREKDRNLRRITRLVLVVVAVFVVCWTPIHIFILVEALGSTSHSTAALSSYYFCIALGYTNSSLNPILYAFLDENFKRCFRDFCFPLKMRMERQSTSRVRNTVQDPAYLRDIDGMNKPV
T5 sequence (P08684 whole entry): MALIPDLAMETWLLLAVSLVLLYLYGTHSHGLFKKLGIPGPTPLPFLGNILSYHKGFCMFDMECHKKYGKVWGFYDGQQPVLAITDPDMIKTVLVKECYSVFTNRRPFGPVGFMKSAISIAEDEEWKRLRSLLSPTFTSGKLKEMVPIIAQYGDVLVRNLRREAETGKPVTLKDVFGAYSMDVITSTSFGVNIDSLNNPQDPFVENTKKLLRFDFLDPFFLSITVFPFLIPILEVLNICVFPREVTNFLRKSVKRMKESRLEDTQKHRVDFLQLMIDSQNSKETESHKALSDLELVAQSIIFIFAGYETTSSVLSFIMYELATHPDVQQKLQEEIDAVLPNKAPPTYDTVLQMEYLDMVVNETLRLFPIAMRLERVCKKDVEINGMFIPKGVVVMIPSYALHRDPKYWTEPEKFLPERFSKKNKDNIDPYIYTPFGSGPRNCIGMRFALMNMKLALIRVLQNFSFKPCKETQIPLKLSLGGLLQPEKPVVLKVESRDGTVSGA
T7 sequence (P35367 whole entry): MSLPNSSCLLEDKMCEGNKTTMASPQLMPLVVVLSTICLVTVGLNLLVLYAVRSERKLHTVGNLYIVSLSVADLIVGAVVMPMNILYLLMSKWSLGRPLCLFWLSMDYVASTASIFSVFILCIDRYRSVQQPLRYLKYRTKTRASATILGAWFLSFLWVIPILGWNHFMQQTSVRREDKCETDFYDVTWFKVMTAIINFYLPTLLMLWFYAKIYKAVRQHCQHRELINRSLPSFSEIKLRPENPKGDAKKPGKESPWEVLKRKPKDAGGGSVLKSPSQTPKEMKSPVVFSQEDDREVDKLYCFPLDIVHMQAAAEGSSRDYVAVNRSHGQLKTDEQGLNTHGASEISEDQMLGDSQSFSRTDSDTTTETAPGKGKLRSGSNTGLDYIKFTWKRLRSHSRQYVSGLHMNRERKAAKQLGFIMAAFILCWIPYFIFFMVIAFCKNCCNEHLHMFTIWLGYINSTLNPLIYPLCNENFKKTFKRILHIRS
Chain of Acetylcholine receptor subunit alpha (P02708 whole entry): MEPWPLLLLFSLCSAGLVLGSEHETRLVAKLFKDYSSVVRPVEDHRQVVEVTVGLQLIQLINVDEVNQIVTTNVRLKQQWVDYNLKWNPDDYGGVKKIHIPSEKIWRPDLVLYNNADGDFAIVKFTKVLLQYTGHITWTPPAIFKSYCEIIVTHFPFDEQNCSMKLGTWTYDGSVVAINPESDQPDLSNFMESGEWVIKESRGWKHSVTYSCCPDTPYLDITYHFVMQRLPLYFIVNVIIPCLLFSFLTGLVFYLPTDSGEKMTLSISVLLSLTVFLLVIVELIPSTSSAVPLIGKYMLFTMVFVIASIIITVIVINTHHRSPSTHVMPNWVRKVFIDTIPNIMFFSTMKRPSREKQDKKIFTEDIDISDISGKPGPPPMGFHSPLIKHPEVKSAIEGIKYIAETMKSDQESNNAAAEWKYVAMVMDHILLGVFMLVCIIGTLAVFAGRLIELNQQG
Chain of Muscarinic acetylcholine receptor M1 (P11229 whole entry): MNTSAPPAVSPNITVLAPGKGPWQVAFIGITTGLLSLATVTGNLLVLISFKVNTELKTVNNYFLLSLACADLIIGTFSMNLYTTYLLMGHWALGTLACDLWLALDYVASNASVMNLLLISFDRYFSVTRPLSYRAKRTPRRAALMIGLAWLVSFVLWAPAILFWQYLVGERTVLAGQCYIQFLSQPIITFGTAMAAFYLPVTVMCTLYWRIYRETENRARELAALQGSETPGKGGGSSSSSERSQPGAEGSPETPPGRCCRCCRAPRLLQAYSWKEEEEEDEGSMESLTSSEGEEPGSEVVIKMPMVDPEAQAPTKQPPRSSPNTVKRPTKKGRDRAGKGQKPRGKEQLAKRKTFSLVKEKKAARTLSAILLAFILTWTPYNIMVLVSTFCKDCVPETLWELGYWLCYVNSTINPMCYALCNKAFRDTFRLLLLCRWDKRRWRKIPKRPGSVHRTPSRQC

Question: COCc1nc2cnc3cc(-c4c(C)noc4C)c(OC[C@H]4CCNC4)cc3c2n1[C@H](C)c1ccccc1 [GSK778] was tested. Which IC50 [1] did it give?
Answer: 3.95 µM (not active)

Question: And the pIC50 [2]?
Answer: 7.1

Question: What about the pIC50 [3] of the same molecule?
Answer: 6

Question: What about the Kd [4] of the same molecule?
Answer: 30 µM

Question: What about the Kd [5] of the same molecule?
Answer: 0.005 µM

Question: What about the Kd [6] of the same molecule?
Answer: 33 µM

Question: What about the Kd [7] of the same molecule?
Answer: 30 µM

Question: And the EC50 [8]?
Answer: > 100 µM

Question: What about the IC50 [8] of the same molecule?
Answer: > 100 µM

Question: What about the EC50 [9] of the same molecule?
Answer: > 25.1 µM

Question: What about the IC50 [9] of the same molecule?
Answer: > 25.1 µM

Question: What about the EC50 [10] of the same molecule?
Answer: > 25.1 µM

Question: What about the IC50 [10] of the same molecule?
Answer: > 25.1 µM

Question: What about the EC50 [11] of the same molecule?
Answer: > 50.1 µM

Question: And the IC50 [11]?
Answer: > 50.1 µM

Question: What about the EC50 [12] of the same molecule?
Answer: > 50.1 µM

Question: What about the IC50 [12] of the same molecule?
Answer: 1 µM

Question: And the EC50 (Adenosine receptor A2a)?
Answer: > 100 µM

Question: What about the IC50 [13] of the same molecule?
Answer: > 25.1 µM

Question: What about the IC50 [14] of the same molecule?
Answer: 79.4 µM

Question: What about the EC50 [15] of the same molecule?
Answer: > 100 µM

Question: And the IC50 [15]?
Answer: > 100 µM

Question: What about the EC50 (Cannabinoid receptor 2) of the same molecule?
Answer: > 100 µM

Question: And the IC50 (Cytochrome P450 3A4 [16])?
Answer: 6.31 µM

Question: What about the IC50 (D(1A) dopamine receptor [17]) of the same molecule?
Answer: > 100 µM

Question: And the EC50 (D(2) dopamine receptor)?
Answer: > 100 µM

Question: What about the IC50 (D(2) dopamine receptor) of the same molecule?
Answer: 3.16 µM

Question: And the IC50 [18]?
Answer: > 50.1 µM

Question: What about the IC50 (Histamine H1 receptor [19]) of the same molecule?
Answer: > 25.1 µM

Question: What about the EC50 [20] of the same molecule?
Answer: > 100 µM

Question: And the IC50 [20]?
Answer: > 100 µM

Question: And the EC50 (Mu-type opioid receptor)?
Answer: > 100 µM

Question: What about the EC50 [21] of the same molecule?
Answer: > 50.1 µM

Question: And the IC50 [21]?
Answer: > 50.1 µM

Question: And the EC50 [22]?
Answer: > 50.1 µM

Question: And the IC50 [22]?
Answer: 10 µM

Question: And the IC50 [23]?
Answer: > 31.6 µM

Question: What about the IC50 [24] of the same molecule?
Answer: > 100 µM

Question: And the IC50 [25]?
Answer: 20 µM

Question: What about the IC50 (Substance-P receptor) of the same molecule?
Answer: > 25.1 µM

Question: What about the IC50 [26] of the same molecule?
Answer: > 31.6 µM

Question: And the IC50 (Vasopressin V1a receptor)?
Answer: > 50.1 µM

Question: What about the IC50 [27] of the same molecule?
Answer: > 100 µM

Question: And the IC50 [28]?
Answer: 39.8 µM

Question: And the IC50 [29]?
Answer: > 100 µM

Question: And the IC50 (Cytochrome P450 3A4 [30])?
Answer: 1 µM

Question: What about the inhibition [31] of the same molecule?
Answer: -5.06%

Question: What about the inhibition (D(1A) dopamine receptor [32]) of the same molecule?
Answer: 2.89%

Question: What about the inhibition [33] of the same molecule?
Answer: 31.7%

Question: What about the inhibition [34] of the same molecule?
Answer: 10.7%

Question: And the inhibition [35]?
Answer: 27.9%

Question: What about the inhibition [36] of the same molecule?
Answer: 38.5%

Question: What about the inhibition (Histamine H1 receptor [37]) of the same molecule?
Answer: 0.33%

Question: And the inhibition [38]?
Answer: 12.3%

Question: And the inhibition [39]?
Answer: 29.3%

Question: What about the inhibition [40] of the same molecule?
Answer: 91.6%

Question: What about the inhibition [41] of the same molecule?
Answer: 38.5%
